The structures appear in SMILES notation.

The target of the first assay is hNAAA (Homo sapiens (Human), UniProt Q02083). The assay can be described thus: Fluorescence-based NAAA inhibition assay with fluorogenic substrate PAMCA.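 Also: compound preincubated 15 min at room temperature with hNAAA, then PAMCA added at 5 µM, reacted 120 min at 37 °C, AMC release read by fluorescence (ex 360, em 460 nm).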
hNAAA, sequence (Q02083 29-125): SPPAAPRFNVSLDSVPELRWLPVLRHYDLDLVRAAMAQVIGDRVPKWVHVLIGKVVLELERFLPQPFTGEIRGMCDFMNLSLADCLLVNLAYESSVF
hNAAA, sequence (Q02083 126-359): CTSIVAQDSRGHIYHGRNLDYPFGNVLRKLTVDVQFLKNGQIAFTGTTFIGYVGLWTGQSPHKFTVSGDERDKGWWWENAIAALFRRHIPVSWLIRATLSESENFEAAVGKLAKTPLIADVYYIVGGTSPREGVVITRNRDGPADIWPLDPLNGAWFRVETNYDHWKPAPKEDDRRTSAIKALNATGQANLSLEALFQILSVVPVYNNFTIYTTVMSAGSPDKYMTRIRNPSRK
Conditions: not given
`COc1ccc(-c2ccc(COC3CN(C#N)C3)cc2)cc1` [Example 63, 3-((4′-Methoxy-[1,1′-biphenyl]-4-yl)methoxy)azetidine-1-carbonitrile] came in with an IC50 of 0.01 to 0.1 µM. For the molecule `Fc1cc(-c2ccc3c(c2)OCO3)ccc1CO[C@H]1C[C@@H](N=C=S)C1` [Example 39, 5-(3-Fluoro-4-(((1S,3S)-3-isothiocyanatocyclobutoxy)methyl)phenyl)benzo[d][1,3]dioxole], the IC50 is 0.01 to 0.1 µM. Still for that read-out and setting: for `S=C=NCCOCCOCCOCc1ccccc1` [Example 23, ((2-(2-(2-Isothiocyanatoethoxy)ethoxy)ethoxy)methyl)benzene] the value was 0.01 to 0.1 µM; for `Fc1ccc(-c2ccc(CO[C@H]3C[C@@H](N=C=S)C3)c(F)c2)cc1` [Example 32, 3,4′-Difluoro-4-(((1S,3S)-3-isothiocyanatocyclobutoxy)methyl)-1,1′-biphenyl], 0.11 to 1 µM; for `S=C=NCCCCCCCCCCc1ccccn1` [Example 18, 2-(10-Isothiocyanatodecyl)pyridine], 0.01 to 0.1 µM. On the same count and under the same terms, the result for `CN(Cc1ccc(-c2ccccc2)cc1)[C@H]1C[C@@H](N=C=S)C1` [Example 54, (1S,3S)—N-([1,1′-biphenyl]-4-ylmethyl)-3-isothiocyanato-N-methylcyclobutan-1-amine] reads greater than 1 µM.

As for `N#CN1CC[C@H](OCc2ccc(-c3ccccc3)cc2)C1` [Example 104, (S)-3-([1,1′-Biphenyl]-4-ylmethoxy)pyrrolidine-1-carbonitrile], the IC50 was 0.11 to 1 µM.

Consider `COc1ccc(-c2cc(Oc3ccccc3)ccc2COC2CN(C#N)C2)cc1` [Example 90, 3-((4′-Methoxy-5-phenoxy-[1,1′-biphenyl]-2-yl)methoxy)azetidine-1-carbonitrile], for which the IC50 was in the range of 0.01 to 0.1 µM. On the same count and under the same terms, the result for `CCOc1ccc(-c2ccc(CO[C@H]3C[C@@H](N=C=S)C3)c(F)c2)cc1F` [Example 36, 4-Ethoxy-3,3′-difluoro-4′-(((1S,3S)-3-isothiocyanatocyclobutoxy)methyl)-1,1′-biphenyl] reads 0.01 to 0.1 µM; that for `N#Cc1ccc(-c2cc(Oc3ccccc3)ccc2COC2CN(C#N)C2)cc1` [Example 92, 3-((4′-Cyano-5-phenoxy-[1,1′-biphenyl]-2-yl)methoxy)azetidine-1-carbonitrile], 0.01 to 0.1 µM. The same measure, in the same setting: the result for `COc1ccccc1-c1ccc(COC2CN(C#N)C2)cc1` [Example 75, 3-((2′-Methoxy-[1,1′-biphenyl]-4-yl)methoxy)azetidine-1-carbonitrile] reads 0.01 to 0.1 µM. Same read-out and setting: the result for `COc1cccc(-c2ccc(C(OC3CN(C#N)C3)c3ccccc3)cc2)c1` (stereo not drawn) [Example 100, 3-((3′-Methoxy-[1,1′-biphenyl]-4-yl)(phenyl)methoxy)azetidine-1-carbonitrile] reads 0.01 to 0.1 µM; that for `CN(Cc1ccc(-c2ccccc2)cc1)C1CN(C#N)C1` [Example 103, 3-(([1,1′-Biphenyl]-4-ylmethyl)(methyl)amino)azetidine-1-carbonitrile], 0.01 to 0.1 µM; that for `N#CN1CC(OCc2ccc(-c3ccc(F)cc3)cc2)C1` [Example 77, 3-((4′-Fluoro-[1,1′-biphenyl]-4-yl)methoxy)azetidine-1-carbonitrile], 0.01 to 0.1 µM.

In turn, `N#Cc1ncc(OCCCCCCc2ccccc2)cn1` [Example 115, 5-((6-phenylhexyl)oxy)pyrimidine-2-carbonitrile] returned an IC50 of 0.11 to 1 µM. Molecule `N#CN1CC[C@@H](OCc2ccc(-c3ccccc3)cc2)C1` [Example 105, (R)-3-([1,1′-biphenyl]-4-ylmethoxy)pyrrolidine-1-carbonitrile] came in with an IC50 of 0.01 to 0.1 µM. The same measure, in the same setting: the result for `S=C=NCCCCCCCCCc1ccccc1` [Example 22, (9-Isothiocyanatononyl)benzene] reads 0.01 to 0.1 µM; that for `COc1ccc(-c2ccc(COC3CN(C#N)C3)cc2)c(OC)c1` [Example 65, 3-((2′,4′-Dimethoxy-[1,1′-biphenyl]-4-yl)methoxy)azetidine-1-carbonitrile], 0.01 to 0.1 µM; that for `N#CN1CC(OCc2ccc(Oc3ccccc3)cc2)C1` [Example 81, 3-((4-Phenoxybenzyl)oxy)azetidine-1-carbonitrile], 0.01 to 0.1 µM. Still for that read-out and setting: the result for `COc1cccc(-c2ccc(COC3(C)CN(C#N)C3)cc2)c1` [Example 95, 3-((3′-Methoxy-[1,1′-biphenyl]-4-yl)methoxy)-3-methylazetidine-1-carbonitrile] reads 0.01 to 0.1 µM; that for `COc1ncccc1-c1ccc(COC2CN(C#N)C2)cc1` [Example 74, 3-((4-(2-Methoxypyridin-3-yl)benzyl)oxy)azetidine-1-carbonitrile], 0.01 to 0.1 µM; that for `Cc1noc(C)c1-c1ccc(C(OC2CN(C#N)C2)c2ccccc2)cc1` (stereo not drawn) [Example 101, 3-((4-(3,5-Dimethylisoxazol-4-yl)phenyl)(phenyl)methoxy)azetidine-1-carbonitrile], 0.01 to 0.1 µM.

`S=C=NCCCCCN1CCC(Cc2ccccc2)CC1` [Example 27, 4-Benzyl-1-(5-isothiocyanatopentyl)piperidine] displayed an IC50 of 0.01 to 0.1 µM. Take `COc1cccc(OC)c1-c1ccc(COC2CN(C#N)C2)cc1` [Example 83, 3-((2′,6′-Dimethoxy-[1,1′-biphenyl]-4-yl)methoxy)azetidine-1-carbonitrile]: the IC50 was 0.01 to 0.1 µM. Same read-out and setting: the result for `N#CN1CC(OCc2ccc(-c3ccc4c(c3)OCCO4)cc2)C1` [Example 84, 3-((4-(2,3-Dihydrobenzo[b][1,4]dioxin-6-yl)benzyl)oxy)azetidine-1-carbonitrile] reads 0.01 to 0.1 µM; that for `COc1cccc(-c2ccc(C3(COC4CN(C#N)C4)CC3)cc2)c1` [Example 82, 3-((1-(3′-Methoxy-[1,1′-biphenyl]-4-yl)cyclopropyl)methoxy)azetidine-1-carbonitrile], 0.01 to 0.1 µM; that for `S=C=N[C@H]1C[C@@H](OCc2ccc(-c3ccccc3)cc2)C1` [Example 31, 4-(((1S,3S)-3-isothiocyanatocyclobutoxy)methyl)-1,1′-biphenyl], 0.11 to 1 µM. Same read-out and setting: the result for `N#CN1CC(OCc2cccc(-c3ccccc3)c2)C1` [Example 66, 3-([1,1′-Biphenyl]-3-ylmethoxy)azetidine-1-carbonitrile] reads 0.01 to 0.1 µM.

Still in this assay, the particulars now being: read-out: NAAA Inhibition IC50 μM; purified hNAAA, PAMCA 5 μM, pH 4.5.
For the molecule `FC(F)(F)c1cccc(-c2ccc(COC3CCCC(N=C=S)C3)cc2)c1` (stereo not drawn) [Example 58, 4′-(((3-Isothiocyanatocyclohexyl)oxy)methyl)-3-(trifluoromethyl)-1,1′-biphenyl], the IC50 is greater than 1 µM. On the same count and under the same terms, for `FC(F)(F)c1ccccc1CCCCCCCCCCN=C=S` [Example 16, 1-(10-Isothiocyanatodecyl)-2-(trifluoromethyl)benzene] the value was greater than 1 µM.

On to `COc1ccc(-c2ccc(COC3CCC(N=C=S)CC3)cc2)cc1F` (stereo not drawn) [Example 59, 3-Fluoro-4′-((((1r,4r)-4-isothiocyanatocyclohexyl)oxy)methyl)-4-methoxy-1,1′-biphenyl], for which the IC50 is 0.11 to 1 µM. Same read-out and setting: the result for `S=C=N[C@H]1C[C@@H](OCc2ccc(Oc3ccccc3)cc2-c2ccccc2)C1` [Example 50, 2-(((1S,3S)-3-Isothiocyanatocyclobutoxy)methyl)-5-phenoxy-1,1′-biphenyl] reads greater than 1 µM. Regarding `COc1cccc(-c2ccc(CO[C@H]3C[C@H](N=C=S)C3)cc2)c1` [Example 34, 4′-(((1R,3R)-3-isothiocyanatocyclobutoxy)methyl)-3-methoxy-1,1′-biphenyl], the IC50 was greater than 1 µM. `N#Cc1ncc(OCc2ccc(-c3ccccc3)cc2)cc1F` [Example 112, 5-([1,1′-Biphenyl]-4-ylmethoxy)-3-fluoropicolinonitrile]: the IC50 is greater than 1 µM. Same read-out and setting: for `N#C[C@H]1C[C@@H](OCc2ccc(-c3ccccc3)cc2)C1` [Example 108, (1S,3S)-3-([1,1′-biphenyl]-4-ylmethoxy)cyclobutane-1-carbonitrile] the value was greater than 1 µM. Same read-out and setting: for `Fc1cc(Br)ccc1COC1CC(N=C=S)C1` [Example 44, 4-Bromo-2-fluoro-1-(((1R,3R)-3-isothiocyanatocyclobutoxy)methyl)benzene] the value was 0.11 to 1 µM. On the same count and under the same terms, for `Cc1cncc(Oc2ccc(CN=C=S)cc2)n1` [Example 14, 2-(4-(Isothiocyanatomethyl)phenoxy)-6-methylpyrazine] the value was greater than 1 µM; for `S=C=NCCCCCCCCc1ccccc1` [Example 3, (8-Isothiocyanatooctyl)benzene], greater than 1 µM.

`COc1ncccc1-c1ccc(COC2CC(N=C=S)C2)c(F)c1` [Example 41, 3-(3-Fluoro-4-(((1R,3R)-3-isothiocyanatocyclobutoxy)methyl)phenyl)-2-methoxypyridine]: the IC50 lay within 0.11 to 1 µM.

Take `S=C=NCCCCCc1ccccc1` [Example 2, (5-Isothiocyanatopentyl)benzene]: the IC50 is greater than 1 µM. Same read-out and setting: the result for `S=C=NCCN1CCN(Cc2ccccc2)CC1` [Example 9, 1-Isothiocyanato-2-(4-benzylpiperazino)ethane] reads greater than 1 µM; that for `S=C=NCCCCCCCc1ccc2ccccc2c1` [Example 5, 2-(7-Isothiocyanatoheptyl)naphthalene], greater than 1 µM. Still for that read-out and setting: the result for `S=C=Nc1ccc(Cc2ccncc2)cc1` [Example 8, 4-(4-Isothiocyanatobenzyl)pyridine] reads greater than 1 µM; that for `N#Cc1ncc(F)cc1OCc1ccc(-c2ccccc2)cc1` [Example 113, 3-([1,1′-Biphenyl]-4-ylmethoxy)-5-fluoropicolinonitrile], greater than 1 µM.

As for `S=C=N[C@@H]1CC[C@@H](OCc2ccc(Br)cc2)C1` [Example 60, 1-Bromo-4-((((1R,3R)-3-isothiocyanatocyclopentyl)oxy)methyl)benzene], the half-inhibitory concentration (IC50) is greater than 1 µM.

For `O=C(CCCCCCc1ccc2ccccc2c1)NCCN=C=S` [Example 7, N-(2-Isothiocyanatoethyl)-7-(naphthalene-2-yl)heptanamide], the IC50 was greater than 1 µM. Same read-out and setting: for `Fc1cc(-c2cccc(OCc3ccccc3)c2)ccc1COC1CC(N=C=S)C1` [Example 48, 3′-(Benzyloxy)-3-fluoro-4-(((1R,3R)-3-isothiocyanatocyclobutoxy)methyl)-1,1′-biphenyl] the value was 0.01 to 0.1 µM; for `Fc1cc(-c2cccc(C(F)(F)F)c2)ccc1COC1CC(N=C=S)C1` [Example 47, 3-Fluoro-4-(((1R,3R)-3-isothiocyanatocyclobutoxy)methyl)-3′-(trifluoromethyl)-1,1′-biphenyl], 0.01 to 0.1 µM.

Source of the values: patent publication US9963444B2, “N-acylethanolamine hydrolyzing acid amidase (NAAA) inhibitors and their use thereof” (Northeastern University, priority 2014, dated 2018).
